Source: the NIST ThermoML archive (doi:10.1016/j.fluid.2005.09.019)

Assays:
[1] = wn = mass fraction of the nth substance listed; details: Fluid (supercritical or subcritical phases), Other PVT measurement
[2] = Crystal; visual observation

O=C(OCCC(F)(F)C(F)(F)C(F)(F)C(F)(F)C(F)(F)C(F)(F)F)c1ccccc1-c1ccccc1C(=O)OCCC(F)(F)C(F)(F)C(F)(F)C(F)(F)C(F)(F)C(F)(F)F + O=C=O
[1]
Details | mass density [kg/m3]
294.65 K, 5000 kPa, w1 = 0.652 | 892
294.65 K, 5620 kPa, w1 = 0.36 | 681
294.85 K, 5930 kPa, w1 = 0.063 | 606
295.15 K, 6040 kPa, w1 = 0.13 | 668
295.55 K, 6170 kPa, w1 = 0.021 | 663
297.35 K, 6380 kPa, w1 = 0.13 | 688
297.45 K, 6110 kPa, w1 = 0.36 | 690
297.75 K, 5170 kPa, w1 = 0.652 | 896
298.65 K, 5930 kPa, w1 = 0.515 | 968
298.75 K, 6310 kPa, w1 = 0.288 | 798
298.85 K, 6590 kPa, w1 = 0.063 | 640
299.15 K, 6690 kPa, w1 = 0.021 | 643
303.05 K, 7110 kPa, w1 = 0.13 | 662
303.35 K, 7210 kPa, w1 = 0.063 | 617
303.35 K, 7380 kPa, w1 = 0.021 | 601
304.65 K, 7210 kPa, w1 = 0.288 | 781
307.95 K, 7210 kPa, w1 = 0.515 | 949
309.35 K, 8200 kPa, w1 = 0.021 | 558
309.75 K, 7970 kPa, w1 = 0.36 | 739
309.95 K, 8030 kPa, w1 = 0.063 | 579
309.95 K, 8070 kPa, w1 = 0.288 | 771
311.95 K, 8580 kPa, w1 = 0.13 | 630
314.35 K, 7140 kPa, w1 = 0.652 | 966
317.85 K, 8860 kPa, w1 = 0.515 | 929
318.85 K, 9510 kPa, w1 = 0.288 | 750
320.05 K, 10210 kPa, w1 = 0.36 | 724
321.05 K, 10870 kPa, w1 = 0.202 | 594
323.85 K, 11580 kPa, w1 = 0.13 | 613
327.05 K, 11550 kPa, w1 = 0.021 | 518
330.25 K, 13000 kPa, w1 = 0.063 | 561
331.85 K, 12530 kPa, w1 = 0.36 | 712
332.75 K, 12890 kPa, w1 = 0.288 | 728
333.95 K, 9800 kPa, w1 = 0.652 | 940
334.55 K, 12170 kPa, w1 = 0.515 | 899
336.45 K, 14580 kPa, w1 = 0.202 | 578
341.45 K, 15270 kPa, w1 = 0.36 | 701
346.35 K, 16510 kPa, w1 = 0.13 | 581
349.25 K, 15310 kPa, w1 = 0.021 | 490
349.95 K, 17000 kPa, w1 = 0.063 | 536
350.65 K, 15520 kPa, w1 = 0.515 | 870
352.75 K, 17100 kPa, w1 = 0.288 | 697
353.75 K, 12800 kPa, w1 = 0.652 | 918
354.55 K, 18170 kPa, w1 = 0.202 | 565
354.95 K, 17650 kPa, w1 = 0.36 | 681
367.35 K, 20380 kPa, w1 = 0.13 | 553
368.25 K, 17510 kPa, w1 = 0.021 | 458
368.45 K, 18830 kPa, w1 = 0.515 | 840
369.05 K, 20170 kPa, w1 = 0.288 | 675
369.25 K, 19820 kPa, w1 = 0.36 | 659
370.45 K, 15210 kPa, w1 = 0.652 | 900
371.85 K, 20310 kPa, w1 = 0.063 | 503
371.85 K, 21240 kPa, w1 = 0.202 | 542

O=C(OCCC(F)(F)C(F)(F)C(F)(F)C(F)(F)C(F)(F)C(F)(F)F)c1cccc(-c2cccc(C(=O)OCCC(F)(F)C(F)(F)C(F)(F)C(F)(F)C(F)(F)C(F)(F)F)c2)c1
Details | Normal melting temperature [°C]
[2] | 72.00

CCCCCCCCOC(=O)c1ccccc1-c1ccccc1C(=O)OCCCCCCCC [dioctyl [1,1'-biphenyl]-2,2'-dicarboxylate] + O=C=O
[1]
Details | mass density [kg/m3]
294.15 K, 29730 kPa, w1 = 0.55 | 926
294.75 K, 7070 kPa, w1 = 0.019 | 786
294.95 K, 61930 kPa, w1 = 0.374 | 942
296.95 K, 55900 kPa, w1 = 0.374 | 931
297.05 K, 11550 kPa, w1 = 0.628 | 870
298.55 K, 27860 kPa, w1 = 0.55 | 917
299.45 K, 9000 kPa, w1 = 0.019 | 784
301.15 K, 12660 kPa, w1 = 0.628 | 862
303.75 K, 60200 kPa, w1 = 0.274 | 984
308.05 K, 69130 kPa, w1 = 0.094 | 953
311.55 K, 50510 kPa, w1 = 0.274 | 965
312.35 K, 42450 kPa, w1 = 0.374 | 882
313.45 K, 26760 kPa, w1 = 0.55 | 896
316.95 K, 53240 kPa, w1 = 0.094 | 911
317.25 K, 14760 kPa, w1 = 0.019 | 750
318.45 K, 16170 kPa, w1 = 0.628 | 848
319.45 K, 53170 kPa, w1 = 0.171 | 1122
320.25 K, 44070 kPa, w1 = 0.069 | 922
322.45 K, 27040 kPa, w1 = 0.55 | 895
322.55 K, 49720 kPa, w1 = 0.206 | 1098
323.45 K, 44620 kPa, w1 = 0.274 | 934
324.25 K, 48000 kPa, w1 = 0.094 | 883
327.05 K, 41620 kPa, w1 = 0.069 | 899
329.65 K, 48240 kPa, w1 = 0.171 | 1085
330.85 K, 28520 kPa, w1 = 0.55 | 882
331.25 K, 47070 kPa, w1 = 0.206 | 1071
334.65 K, 19620 kPa, w1 = 0.628 | 838
334.65 K, 39730 kPa, w1 = 0.374 | 852
334.85 K, 19620 kPa, w1 = 0.019 | 716
337.75 K, 42720 kPa, w1 = 0.274 | 903
339.35 K, 44380 kPa, w1 = 0.094 | 845
340.95 K, 45450 kPa, w1 = 0.206 | 1040
340.95 K, 46170 kPa, w1 = 0.171 | 1048
342.45 K, 40210 kPa, w1 = 0.374 | 857
342.75 K, 39580 kPa, w1 = 0.069 | 852
351.75 K, 44960 kPa, w1 = 0.206 | 1005
352.95 K, 42930 kPa, w1 = 0.274 | 879
353.55 K, 23520 kPa, w1 = 0.628 | 828
353.85 K, 32040 kPa, w1 = 0.55 | 866
353.95 K, 45690 kPa, w1 = 0.171 | 1013
354.35 K, 43820 kPa, w1 = 0.094 | 811
355.95 K, 41140 kPa, w1 = 0.374 | 830
356.55 K, 40450 kPa, w1 = 0.069 | 821
359.75 K, 25240 kPa, w1 = 0.019 | 671
359.75 K, 45100 kPa, w1 = 0.206 | 994
367.25 K, 43820 kPa, w1 = 0.274 | 849
369.25 K, 46200 kPa, w1 = 0.171 | 970
369.85 K, 45410 kPa, w1 = 0.206 | 955
370.25 K, 44510 kPa, w1 = 0.094 | 779
371.05 K, 26730 kPa, w1 = 0.628 | 821
371.45 K, 42590 kPa, w1 = 0.374 | 816
371.55 K, 41450 kPa, w1 = 0.069 | 788
371.85 K, 34480 kPa, w1 = 0.55 | 851
375.95 K, 27720 kPa, w1 = 0.019 | 638
